Laboratory results from ChEMBL document CHEMBL1146997, “Synthesis of phospholipase A2 inhibitory biflavonoids” (Bioorg Med Chem Lett, 2006).

Target: T1, Phospholipase A2, membrane associated (Homo sapiens, UniProt P14555)
T1 sequence (P14555 whole entry): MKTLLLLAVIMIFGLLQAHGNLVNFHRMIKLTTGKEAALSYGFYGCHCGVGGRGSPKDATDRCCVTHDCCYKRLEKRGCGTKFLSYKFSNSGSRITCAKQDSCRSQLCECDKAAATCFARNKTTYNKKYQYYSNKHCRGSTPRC
Assay: Inhibition of sPLA2-2A in HEK293 cell
Type: cell-based

IC50 [µM]	SMILES
63.9	O=c1cc(-c2ccc(-c3ccc4oc(-c5ccccc5)cc(=O)c4c3)cc2)oc2ccccc12
3.5	O=c1cc(-c2ccc(Oc3cc(-c4cc(=O)c5c(O)cc(O)cc5o4)ccc3O)cc2)oc2cc(O)cc(O)c12 [OCHNAFLAVONE]
15.5	O=c1cc(-c2ccc(-c3cccc(-c4cc(=O)c5ccccc5o4)c3)cc2)oc2ccccc12
23.2	O=c1cc(-c2ccc(-c3c(-c4ccccc4)oc4ccccc4c3=O)cc2)oc2ccccc12
69.3	O=c1cc(-c2ccccc2)oc2ccc(-c3ccc4oc(-c5ccccc5)cc(=O)c4c3)cc12
3	O=c1cc(-c2ccc(-c3ccc(-c4cc(=O)c5ccccc5o4)cc3)cc2)oc2ccccc12
19.9	O=c1cc(-c2cccc(-c3ccc4oc(-c5ccccc5)cc(=O)c4c3)c2)oc2ccccc12
23.8	O=c1cc(-c2ccc(O)c(-c3c(O)cc(O)c4c(=O)cc(-c5ccc(O)cc5)oc34)c2)oc2cc(O)cc(O)c12 [AMENTOFLAVONE]
